From patent publication US11332452B2, “Pesticidal compositions and methods” (priority 2019, dated 2022) come the findings set out here.

Common to all, as to format: in vivo
The subject of data set [1] is Yellow Fever Mosquito (Aedes aegypti, AEDSAE). Nature of the data set: Insecticidal test for yellow fever mosquito (YFM), 96-well plate larval assay. Particulars: from 4000 ppm DMSO master solution, diluted; about 1 day-old larvae; room temperature; scored after 3 days. The procedure: Insecticidal Test for Yellow Fever Mosquito (Aedes aegypti, AEDSAE) (“YFM”)
Master plates containing 400 μg of a molecule dissolved in 100 μL of dimethyl sulfoxide (DMSO) (equivalent to a 4000 ppm solution) are used. A master plate of assembled molecules contains 15 μL per well. To this plate, 135 μL of a 90:10 water/acetone mixture is added to each well. A robot (Biomek® NXP Laboratory Automation Workstation) is programmed to dispense 15 μL aspirations from the master plate into an empty 96-well shallow plate (“daughter” plate). There are 6 reps (“daughter” plates) created per master. The created “daughter” plates are then immediately infested with YFM larvae.
The day before plates are to be treated, mosquito eggs are placed in Millipore water containing liver powder to begin hatching (4 g. into 400 mL). After the “daughter” plates are created using the robot, they are infested with 220 μL of the liver powder/larval mosquito mixture (about 1 day-old larvae). After plates are infested with mosquito larvae, a non-evaporative lid is used to cover the plate to reduce drying. Plates are held at room temperature for 3 days prior to grading. After 3 days, each well is observed and scored based on mortality.

Data set [2] relates to Cabbage Looper (Trichloplusia Ni, TRIPNI). Nature of the data set: Insecticidal test for cabbage looper (CL), 128-well diet tray assay. Particulars: Trichoplusia ni, 168 h, read-out: CL % Control (or Mortality) rating. The protocol:
Insecticidal Test for Cabbage Looper (Trichloplusia Ni, TRIPNI) (“CL”)
(§1) Bioassays on cabbage looper (CL; Trichloplusia ni: Lepidoptera) are conducted using a 128-well diet tray assay. One to five second instar CL larvae are placed in each well (3 mL) of the diet tray that had been previously filled with 1 mL of artificial diet to which 50 μg/cm^2 of the test compound (dissolved in 50 μL of 90:10 acetone-water mixture) had been applied (to each of eight wells) and then allowed to dry. Trays are covered with a clear self-adhesive cover, vented to allow gas exchange, and held at 25° C., 14:10 light-dark for five to seven days. Percent mortality is recorded for the larvae in each well; activity in the eight wells is then averaged.

The test system of data set [3] is Beet Armyworm (Spodoptera exigua, LAPHEG). Nature of the data set: Insecticidal test for beet armyworm (BAW), 128-well diet tray assay. The following applies: 168 h, 50 μg/cm^2 of test compound on artificial diet, second instar larvae, 25° C., five to seven days, average of eight wells, read-out: BAW % Control (or Mortality) rating. The protocol:
Insecticidal Test for Beet Armyworm (Spodoptera exigua, LAPHEG) (“BAW”)
as §1, with “beet armyworm (BAW; Spodoptera exigua:” for “cabbage looper (CL; Trichloplusia ni:”, “BAW” for “CL”

By mortality is commonly meant the share of the test organisms that died. For the compound `Cc1ccc(C(C)C)c(N2C(=O)CS/C2=N\C(=O)NCCc2ccc(NCC(=O)c3ccc(OC(F)(F)F)cc3)cc2)c1` [Compound A1, (Z)-1-(3-(2-isopropyl-5-methylphenyl)-4-oxothiazolidin-2-ylidene)-3-(4-((2-oxo-2-(4-(trifluoromethoxy)phenyl)ethyl)amino)phenethyl)urea], the “YFM % Control (or Mortality) rating” value in data set [1] is on record as “A (80-100)”. For the same compound, the mortality at 50 µg/cm2 in data set [2] and in data set [3] was 50 to 100% in each case.

As for `Cc1ccc(C(C)C)c(N2C(=O)CS/C2=N\C(=O)Nc2ccc(C(=O)NNc3ccc(OC(F)(F)F)cc3)cc2)c1` [Compound A2, (Z)-1-(3-(2-Isopropyl-5-methylphenyl)-4-oxothiazolidin-2-ylidene)-3-(4-(2-(4-(trifluoromethoxy)phenyl)hydrazine-1-carbonyl)phenyl)urea], in data set [1], the “YFM % Control (or Mortality) rating” value was “A (80-100)”. For the same compound, the mortality at 50 µg/cm2 in data set [2] and in data set [3] was 50 to 100% in each case.

`Cc1ccc(OCC(F)(F)F)c(N2C(=O)CS/C2=N\C(=O)Nc2ccc(C(=O)NNc3ccc(OC(F)(F)F)cc3)cc2)c1` [Compound A3, (Z)-1-(3-(5-methyl-2-(2,2,2-trifluoroethoxy)phenyl)-4-oxothiazolidin-2-ylidene)-3-(4-(2-(4-(trifluoromethoxy)phenyl)hydrazine-1-carbonyl)phenyl)urea]: the “YFM % Control (or Mortality) rating” value in data set [1] was “D (No activity noticed in this bioassay)”. Besides, the mortality at 50 µg/cm2 in data set [2] and in data set [3] was 50 to 100% throughout.

As to `Cc1ccc(C(C)C)c(N2C(=O)CS/C2=N\C(=O)Nc2ccc(NNC(=O)c3ccc(OC(F)(F)F)cc3)cc2)c1` [Compound A4, (Z)-1-(3-(2-isopropyl-5-methylphenyl)-4-oxothiazolidin-2-ylidene)-3-(4-(2-(4-(trifluoromethoxy)benzoyl)hydrazinyl)phenyl)urea], the “YFM % Control (or Mortality) rating” value in data set [1] is reported as “A (80-100)”. The mortality at 50 µg/cm2 in data set [2] and in data set [3] was 50 to 100% throughout.

Take `Cc1ccc(OCC(F)(F)F)c(N2C(=O)CS/C2=N\C(=O)Nc2ccc(NNC(=O)c3ccc(OC(F)(F)F)cc3)cc2)c1` [Compound A5, (Z)-1-(3-(5-Methyl-2-(2,2,2-trifluoroethoxy)phenyl)-4-oxothiazolidin-2-ylidene)-3-(4-(2-(4-(trifluoromethoxy)benzoyl)hydrazinyl)phenyl)urea]: the “YFM % Control (or Mortality) rating” value in data set [1] is given as “B (More than 0-Less than 80)”. Moreover, the mortality at 50 µg/cm2 in data set [2] and in data set [3] was 0 to 50% throughout.

Regarding `O=C(/N=C1\SCC(=O)N1c1cc(Cl)ccc1OCC(F)(F)F)Nc1ccc(NNC(=O)c2ccc(OC(F)(F)F)cc2)cc1` [Compound A6, (Z)-1-(3-(5-Chloro-2-(2,2,2-trifluoroethoxy)phenyl)-4-oxothiazolidin-2-ylidene)-3-(4-(2-(4-(trifluoromethoxy)benzoyl)hydrazinyl)phenyl)urea], the “YFM % Control (or Mortality) rating” value in data set [1] is “D (No activity noticed in this bioassay)”. Moreover, the mortality at 50 µg/cm2 in data set [2] and in data set [3] was 0% throughout.

As for `Cc1ccc(C(C)C)c(N2C(=O)CS/C2=N\C(=O)Nc2ccc(NC(=O)Nc3ccc(OC(F)(F)F)cc3)cc2)c1` [Compound A7, (Z)-1-(3-(2-isopropyl-5-methylphenyl)-4-oxothiazolidin-2-ylidene)-3-(4-(3-(4-(trifluoromethoxy)phenyl)ureido)phenyl)urea], in data set [1], the “YFM % Control (or Mortality) rating” value was “A (80-100)”. For the same compound, the mortality at 50 µg/cm2 in data set [2] and in data set [3] was 50 to 100% each time.

For the compound `Cc1ccc(C(C)C)c(N2C(=O)CS/C2=N\C(=O)NCCc2ccc(NC(=O)Nc3ccc(OC(F)(F)F)cc3)cc2)c1` [Compound A8, (Z)-1-(3-(2-isopropyl-5-methylphenyl)-4-oxothiazolidin-2-ylidene)-3-(4-(3-(4-(trifluoromethoxy)phenyl)ureido)phenethyl)urea], in data set [1], the “YFM % Control (or Mortality) rating” value was “A (80-100)”. In addition, the mortality at 50 µg/cm2 in data set [2] and in data set [3] was 50 to 100% throughout.

With `Cc1ccc(C(C)C)c(N2C(=O)CS/C2=N\C(=O)NCCc2ccc(NC(=O)Nc3ccc(C(F)(F)F)cc3)cc2)c1` [Compound A9, (Z)-1-(4-(2-(3-(3-(2-isopropyl-5-methylphenyl)-4-oxothiazolidin-2-ylidene)ureido)ethyl)phenyl)-3-(4-(trifluoromethyl)phenyl)urea], the “YFM % Control (or Mortality) rating” value in data set [1] was “A (80-100)”. The mortality at 50 µg/cm2 in data set [2] and in data set [3] was 50 to 100% each time.

As for `COc1ccc(N2C(=O)CS/C2=N\C(=O)NCCc2ccc(NC(=O)Nc3ccc(C(F)(F)F)cc3)cc2)c(C)c1` [Compound A10, (Z)-1-(4-(2-(3-(3-(4-Methoxy-2-methylphenyl)-4-oxothiazolidin-2-ylidene)ureido)ethyl)phenyl)-3-(4-(trifluoromethyl)phenyl)urea], the “YFM % Control (or Mortality) rating” value in data set [1] is on record as “A (80-100)”. Also, the mortality at 50 µg/cm2 in data set [2] and in data set [3] was 50 to 100% throughout.

With `CCc1cccc(C)c1N1C(=O)CS/C1=N\C(=O)NCCc1ccc(NC(=O)Nc2ccc(C(F)(F)F)cc2)cc1` [Compound A11, (Z)-1-(4-(2-(3-(3-(2-Ethyl-6-methylphenyl)-4-oxothiazolidin-2-ylidene)ureido)ethyl)phenyl)-3-(4-(trifluoromethyl)phenyl)urea], the “YFM % Control (or Mortality) rating” value in data set [1] is “A (80-100)”. The mortality at 50 µg/cm2 in data set [2] and in data set [3] was 50 to 100% in each case.

For the compound `CC(C)c1ccccc1N1C(=O)CS/C1=N\C(=O)NCCc1ccc(NC(=O)Nc2ccc(C(F)(F)F)cc2)cc1` [Compound A12, (Z)-1-(4-(2-(3-(3-(2-Isopropylphenyl)-4-oxothiazolidin-2-ylidene)ureido)ethyl)phenyl)-3-(4-(trifluoromethyl)phenyl)urea], the “YFM % Control (or Mortality) rating” value in data set [1] was “A (80-100)”. Also, the mortality at 50 µg/cm2 in data set [2] and in data set [3] was 50 to 100% each time.

On to `CC(C)c1ccc(Cl)cc1N1C(=O)CS/C1=N\C(=O)NCCc1ccc(NC(=O)Nc2ccc(C(F)(F)F)cc2)cc1` [Compound A13, (Z)-1-(4-(2-(3-(3-(5-Chloro-2-isopropylphenyl)-4-oxothiazolidin-2-ylidene)ureido)ethyl)phenyl)-3-(4-(trifluoromethyl)phenyl)urea], for which, in data set [1], the “YFM % Control (or Mortality) rating” value is “A (80-100)”. Moreover, the mortality at 50 µg/cm2 in data set [2] and in data set [3] was 50 to 100% each time.

As for `Cc1ccc(C(C)C)c(-n2ccs/c2=N\C(=O)NCCc2ccc(NC(=O)Nc3ccc(C(F)(F)F)cc3)cc2)c1` [Compound A14, (Z)-1-(4-(2-(3-(3-(2-Isopropyl-5-methylphenyl)thiazol-2(3H)-ylidene)ureido)ethyl)phenyl)-3-(4-(trifluoromethyl)phenyl)urea], the “YFM % Control (or Mortality) rating” value in data set [1] is “A (80-100)”. In addition, the mortality at 50 µg/cm2 in data set [2] and in data set [3] was 50 to 100% throughout.

`CC(C)c1ccc(Cl)cc1N1C(=O)CS/C1=N\C(=O)NCCc1ccc(NC(=O)Nc2ccc(OC(F)(F)F)cc2)cc1` [Compound A15, (Z)-1-(4-(2-(3-(3-(5-Chloro-2-isopropylphenyl)-4-oxothiazolidin-2-ylidene)ureido)ethyl)phenyl)-3-(4-(trifluoromethoxy)phenyl)urea]: in data set [1], the “YFM % Control (or Mortality) rating” value is recorded as “A (80-100)”. Further, the mortality at 50 µg/cm2 in data set [2] and in data set [3] was 50 to 100% each time.

With `CC(C)c1ccccc1N1C(=O)CS/C1=N\C(=O)NCCc1ccc(NC(=O)Nc2ccc(OC(F)(F)F)cc2)cc1` [Compound A16, (Z)-1-(4-(2-(3-(3-(2-Isopropylphenyl)-4-oxothiazolidin-2-ylidene)ureido)ethyl)phenyl)-3-(4-(trifluoromethoxy)phenyl)urea], in data set [1], the “YFM % Control (or Mortality) rating” value is “A (80-100)”. The mortality at 50 µg/cm2 in data set [2] and in data set [3] was 50 to 100% each time.

For the compound `CCc1cccc(C)c1N1C(=O)CS/C1=N\C(=O)NC(C)Cc1ccc(NC(=O)Nc2ccc(C(F)(F)F)cc2)cc1` (centres unmarked) [Compound A32, (Z)-1-(4-(2-(3-(3-(2-Ethyl-6-methylphenyl)-4-oxothiazolidin-2-ylidene)ureido)propyl)phenyl)-3-(4-(trifluoromethyl)phenyl)urea], the mortality at 50 µg/cm2 in data set [2] and in data set [3] was 50 to 100% each time.
